Tests used:
[1] = tested on: 5′Q-5C:10 DA (Cy3 ATP DNA Aptamer with 5′Q-5C:10 ACE) (DNA, aptamer) TCACTGACCTGGGGGAGTATTGCGGAGGAAGGT; experiment: solution FRET (Cy3/BHQ-2) equilibrium titration; settings: 300 mM Na+, 5 mM Mg2+; apparent; 25 °C; 200 nM aptamer; quencher ACE 5′Q-5C:10 displaced, Q:F 1:1; n = 1.0
[2] = tested on: 5′Q-5C:12 DA (Cy3 ATP DNA Aptamer with 5′Q-5C:12 ACE) (DNA, aptamer) TCACTGACCTGGGGGAGTATTGCGGAGGAAGGT; experiment: solution FRET (Cy3/BHQ-2) equilibrium titration; settings: 300 mM Na+, 5 mM Mg2+; apparent; 25 °C; 200 nM aptamer; quencher ACE 5′Q-5C:12 displaced, Q:F 1:1; n = 1.3
[3] = tested on: 5′Q-2T:9 DA (Cy3 ATP DNA Aptamer with 5′Q-2T:9 ACE) (DNA, aptamer) TCACTGACCTGGGGGAGTATTGCGGAGGAAGGT; experiment: solution FRET (Cy3/BHQ-2) equilibrium titration; settings: 300 mM Na+, 5 mM Mg2+; apparent; 25 °C; 200 nM aptamer; quencher ACE 5′Q-2T:9 displaced, Q:F 1:1; n = 1.3
[4] = tested on: 5′Q-5C:11 DA (Cy3 ATP DNA Aptamer with 5′Q-5C:11 ACE) (DNA, aptamer) TCACTGACCTGGGGGAGTATTGCGGAGGAAGGT; experiment: solution FRET (Cy3/BHQ-2) equilibrium titration; settings: 300 mM Na+, 5 mM Mg2+; apparent; 25 °C; 200 nM aptamer; quencher ACE 5′Q-5C:11 displaced, Q:F 1:1; n = 1.2
[5] = tested on: 5′Q-5C:9 DA (Cy3 ATP DNA Aptamer with 5′Q-5C:9 ACE) (DNA, aptamer) TCACTGACCTGGGGGAGTATTGCGGAGGAAGGT; experiment: solution FRET (Cy3/BHQ-2) equilibrium titration; settings: 300 mM Na+, 5 mM Mg2+; apparent; 25 °C; 200 nM aptamer; quencher ACE 5′Q-5C:9 displaced, Q:F 1:1; n = 0.7
[6] = tested on: ATP DAs on ACE microarray (Cy3 ATP DNA Aptamer) (DNA, aptamer) TCACTGACCTGGGGGAGTATTGCGGAGGAAGGT; experiment: surface fluorescence loss (aptamer release), non-equilibrium; settings: immobilised ACE microarray; negative control ligand; no induced fit binding

Kd,Exp Obs [1]	Kd,Exp Obs [2]	Kd,Exp Obs [3]	Kd,Exp Obs [4]	Kd,Exp Obs [5]	binding [6]	Structure (SMILES)
163 µM	1370 µM	85 µM	663 µM	4700 µM		Nc1ncnc2c1ncn2[C@@H]1O[C@H](COP(=O)(O)OP(=O)(O)OP(=O)(O)O)[C@@H](O)[C@H]1O
					no	Nc1nc2c(ncn2[C@@H]2O[C@H](COP(=O)(O)OP(=O)(O)OP(=O)(O)O)[C@@H](O)[C@H]2O)c(=O)[nH]1

— paper PMC5408566 (2016)
